# Measured values published in patent US5929236A, “2-substituted morpholine and thiomorpholine derivatives as GABA-B antagonists” (Schering Corporation, priority 1995, dated 1999).
# pIC50: −log10 of the molar value.
# Assays:
# [1] = system: seizure in lethargic (lh/lh) mice; test: Prevention of seizure in lethargic (lh/lh) mice; assay type: in vivo
# Excerpt: B. Hosford, et al., Science, 257, 398-401 (Jul. 17, 1992), teaches a pharmacological model for testing the effectiveness of GABAB antagonists as anticonvulsants for the treatment of absence seizures by administering the compound to be tested to lethargic (lh/lh) mice, a mutant strain with spontaneous seizures.
# [2] = system: seizure in rats induced by GBL; test: Prevention of seizure in rats induced by GBL; assay type: in vivo, rat; conditions: 100 mg/kg GBL (ip)
# Procedure: (§1) Animal Models for Absence Seizures
# (§2) A. Snead, Eur. J. Pharmacol., 213, 343-349 (1992), teaches a pharmacological model for testing the effectiveness of GABAB antagonists in preventing seizures induced by intra-peritoneal (ip) administration of either γ-butyrolactone (GBL) or pentylenetetrazole (PTZ) to rats. The animal is treated with the test compound, then monitored after being subjected to a dose of either GBL or PTZ sufficient to induce seizures.
# [3] = target: T1, GABAB receptors (Rattus norvegicus, UniProt Q9Z0U4); test: GABAB Receptor Binding Assay ([3H]GABA, rat brain synaptosomes); conditions: 5 nM [3H]GABA, rat brain synaptosomes, 20° C., 30 min
# T1 construct: Rat brain synaptosomes are used as a source of GABAB receptors; from tissue; host or cells: rat brain synaptosomes
# T1 sequence (Q9Z0U4 17-960 limits assumed): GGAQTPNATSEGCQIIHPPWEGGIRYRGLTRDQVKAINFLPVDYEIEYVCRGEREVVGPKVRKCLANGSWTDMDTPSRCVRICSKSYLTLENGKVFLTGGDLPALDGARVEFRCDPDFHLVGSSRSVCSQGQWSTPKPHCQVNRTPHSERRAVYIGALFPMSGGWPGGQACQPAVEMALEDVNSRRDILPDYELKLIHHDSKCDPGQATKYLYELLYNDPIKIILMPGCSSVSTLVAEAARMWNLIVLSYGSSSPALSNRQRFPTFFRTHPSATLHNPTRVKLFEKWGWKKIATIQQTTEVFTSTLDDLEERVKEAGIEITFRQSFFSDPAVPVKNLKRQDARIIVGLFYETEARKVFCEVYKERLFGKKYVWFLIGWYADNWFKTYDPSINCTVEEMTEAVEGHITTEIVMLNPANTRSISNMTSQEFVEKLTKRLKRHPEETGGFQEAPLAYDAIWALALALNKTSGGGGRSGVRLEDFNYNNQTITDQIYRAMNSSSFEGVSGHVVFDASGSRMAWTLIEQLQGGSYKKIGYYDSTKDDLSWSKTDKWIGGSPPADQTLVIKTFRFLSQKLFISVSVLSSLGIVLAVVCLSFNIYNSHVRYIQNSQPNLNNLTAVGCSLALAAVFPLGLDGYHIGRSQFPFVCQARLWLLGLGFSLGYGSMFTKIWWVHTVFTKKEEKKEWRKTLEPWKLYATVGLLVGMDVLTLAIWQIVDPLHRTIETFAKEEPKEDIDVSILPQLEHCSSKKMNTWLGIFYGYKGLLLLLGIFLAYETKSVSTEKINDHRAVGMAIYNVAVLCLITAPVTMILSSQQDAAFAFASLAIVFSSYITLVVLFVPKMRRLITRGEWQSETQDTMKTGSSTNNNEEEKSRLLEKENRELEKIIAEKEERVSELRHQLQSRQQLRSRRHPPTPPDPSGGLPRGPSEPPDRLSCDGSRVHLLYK
# T1 sequence (O88871 41-940 partner): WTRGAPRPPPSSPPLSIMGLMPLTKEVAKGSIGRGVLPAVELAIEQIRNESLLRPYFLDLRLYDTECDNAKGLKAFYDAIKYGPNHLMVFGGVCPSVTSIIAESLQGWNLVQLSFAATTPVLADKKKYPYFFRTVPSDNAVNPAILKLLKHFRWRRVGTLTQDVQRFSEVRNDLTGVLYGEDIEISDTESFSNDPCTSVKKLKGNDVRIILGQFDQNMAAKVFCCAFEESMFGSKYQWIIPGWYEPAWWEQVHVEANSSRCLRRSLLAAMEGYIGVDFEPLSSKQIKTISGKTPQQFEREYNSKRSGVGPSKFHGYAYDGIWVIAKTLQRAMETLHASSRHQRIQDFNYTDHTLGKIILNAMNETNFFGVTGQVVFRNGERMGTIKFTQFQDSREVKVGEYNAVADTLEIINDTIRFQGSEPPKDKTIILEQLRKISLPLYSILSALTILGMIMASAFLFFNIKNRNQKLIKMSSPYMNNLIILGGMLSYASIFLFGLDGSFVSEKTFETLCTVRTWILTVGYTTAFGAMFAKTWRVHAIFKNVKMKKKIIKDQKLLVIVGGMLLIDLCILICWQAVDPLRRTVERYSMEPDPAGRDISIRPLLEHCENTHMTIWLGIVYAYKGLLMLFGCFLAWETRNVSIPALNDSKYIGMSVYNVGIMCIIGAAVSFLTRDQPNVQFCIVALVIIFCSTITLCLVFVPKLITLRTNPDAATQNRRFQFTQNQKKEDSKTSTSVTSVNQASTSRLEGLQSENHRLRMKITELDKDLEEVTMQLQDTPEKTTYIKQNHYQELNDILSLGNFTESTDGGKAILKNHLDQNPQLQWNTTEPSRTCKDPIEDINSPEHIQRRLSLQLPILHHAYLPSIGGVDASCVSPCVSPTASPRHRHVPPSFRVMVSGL
# Procedure: GABAB Receptor Binding Assay
# The percentage inhibition of GABA binding to GABAB receptors is measured by tritiated GABA ([^3 H]GABA) determination of the degree of binding by scintillation counting. Rat brain synaptosomes are used as a source of GABAB receptors. An incubation medium is prepared from the following: 20 μg/mL of the compound to be tested as a solution in 1% DMSO/water; 5 nM [^3 H]GABA; 50 mM Tris buffer (pH 7.5); and 2.5 mM CaCl2. The medium also contains 40 μM isoguvacine to selectively block binding to GABAA receptors. The synaptosome (200 μg/mL) is added to the incubation medium and incubated for 30 minutes at 20° C. The incubation is terminated by filtration and counted to determine the percentage inhibition of [^3 H]-GABA binding. The results are reported as IC50 values for those compounds inhibiting [^3 H]-GABA binding by >50%.
# [4] = system: seizure in rats induced by PTZ; test: Prevention of seizure in rats induced by PTZ; assay type: in vivo, rat; conditions: PTZ model
# Procedure: as §1, §2
# [5] = system: Respiratory Depressant Effect of Baclofen; test: Reversal of the Respiratory Depressant Effect of Baclofen via icv Administration; assay type: in vivo, guinea pig; conditions: 50 μg in 10 μl of vehicle, icv, 5 min before measurement of ventilation; mean ± SEM
# Procedure: Animal Model for Respiratory Depression:
# Place unanesthetized guinea pigs in a head-out plethysmograph and expose to a CO2 enriched gas mixture (10% CO2, 21% O2, 69% N2) for 10 min., (see Danko, et al., J. Pharm. Methods, 19, 165-173 (1988)). Plethysmograph pressure is detected with a transducer connected to a chart recorder. Minute ventilation is calculated as the product of tidal volume and respiratory frequency. The compound to be tested is administered orally, subcutaneously (sc), intraperitoneally (ip) or via an intracerebroventricular route (icv). Baclofen (3 mg/kg, sc) was given 30 min before exposure to the CO2 enriched gas. When given by the oral route, the compounds is administered 1, 3, 5 or 7 h before exposure to CO2 enriched gas. A 40 or 30 min. preteratment is used for the subcutaneous and intraperitoneal routes, respectively. The vehicle for oral, sc or ip administration is saline. For icv administration, single icv cannulae are placed in the lateral ventricle of anesthetized guinea pigs, (see McLeod, et al., Eur. J. Pharmacol., 209, 141-142 (1988)). The animals are allowed to recover approximately one week prior to use for ventilation experiments. The vehicle for icv administration is artificial cerebrospinal fluid (CSF).
compound,measurement,setting,value
"CC1(C)COC(CC(=O)O)CN1 (single isomer, unassigned) [Example 6A]",Seizures (% vehicle) in 120 min.,[1]; 1.0 mg/kg ip,85%
same,Seizures (% vehicle) in 120 min.,[1]; 3.0 mg/kg ip,60%
same,Seizures (% vehicle) in 120 min.,[1]; 10 mg/kg ip,15%
same,Seizures (% vehicle) in 120 min.,[1]; 30 mg/kg ip,5%
same,SWD duration,"[2]; 0.75 mg/kg, 20 min",970 s
same,SWD duration,"[2]; 0.75 mg/kg, 40 min",1150 s
same,SWD duration,"[2]; 0.75 mg/kg, 60 min",500 s
same,SWD duration,"[2]; 0.75 mg/kg, 80 min",280 s
same,SWD duration,"[2]; 0.75 mg/kg, 100 min",50 s
same,SWD duration,"[2]; 0.75 mg/kg, 120 min",0 s
same,SWD duration,"[2]; 1.5 mg/kg, 20 min",560 s
same,SWD duration,"[2]; 1.5 mg/kg, 40 min",540 s
same,SWD duration,"[2]; 1.5 mg/kg, 60 min",0 s
same,SWD duration,"[2]; 1.5 mg/kg, 80 min",0 s
same,SWD duration,"[2]; 1.5 mg/kg, 100 min",0 s
same,SWD duration,"[2]; 1.5 mg/kg, 120 min",0 s
same,SWD duration,"[2]; 3.0 mg/kg, 20 min",0 s
same,SWD duration,"[2]; 3.0 mg/kg, 40 min",0 s
same,SWD duration,"[2]; 3.0 mg/kg, 60 min",0 s
same,SWD duration,"[2]; 3.0 mg/kg, 80 min",0 s
same,SWD duration,"[2]; 3.0 mg/kg, 100 min",0 s
same,SWD duration,"[2]; 3.0 mg/kg, 120 min",0 s
same,pIC50,[3],5.70
same,SWD duration,"[4]; 0.18 mg/kg, 20 min",250 s
same,SWD duration,"[4]; 0.18 mg/kg, 40 min",235 s
same,SWD duration,"[4]; 0.18 mg/kg, 60 min",140 s
same,SWD duration,"[4]; 0.18 mg/kg, 80 min",60 s
same,SWD duration,"[4]; 0.18 mg/kg, 100 min",15 s
same,SWD duration,"[4]; 0.18 mg/kg, 120 min",0 s
same,SWD duration,"[4]; 0.375 mg/kg, 20 min",150 s
same,SWD duration,"[4]; 0.375 mg/kg, 40 min",140 s
same,SWD duration,"[4]; 0.375 mg/kg, 60 min",55 s
same,SWD duration,"[4]; 0.375 mg/kg, 80 min",25 s
same,SWD duration,"[4]; 0.375 mg/kg, 100 min",0 s
same,SWD duration,"[4]; 0.375 mg/kg, 120 min",0 s
same,SWD duration,"[4]; 0.75 mg/kg, 20 min",90 s
same,SWD duration,"[4]; 0.75 mg/kg, 40 min",70 s
same,SWD duration,"[4]; 0.75 mg/kg, 60 min",45 s
same,SWD duration,"[4]; 0.75 mg/kg, 80 min",0 s
same,SWD duration,"[4]; 0.75 mg/kg, 100 min",0 s
same,SWD duration,"[4]; 0.75 mg/kg, 120 min",0 s
same,SWD duration,"[4]; 1.5 mg/kg, 20 min",0 s
same,SWD duration,"[4]; 1.5 mg/kg, 40 min",0 s
same,SWD duration,"[4]; 1.5 mg/kg, 60 min",0 s
same,SWD duration,"[4]; 1.5 mg/kg, 80 min",0 s
same,SWD duration,"[4]; 1.5 mg/kg, 100 min",0 s
same,SWD duration,"[4]; 1.5 mg/kg, 120 min",0 s
same,% Inhibition,[5],99 ± 23%
